According to ChEMBL document CHEMBL4043145, “Pyridine-pyrimidine amides that prevent HGF-induced epithelial scattering by two distinct mechanisms” (Bioorg Med Chem Lett, 2017):
pEC50, pIC50: −log10 of the molar value.

Tests used:
[1] = (§1) Inhibition of bovine brain tubulin polymerization; parameters: species or system Bos taurus
Bos taurus = species on record: Bos taurus; assay: as §1
MCF7 = assay: Antiproliferative activity against human MCF7 cells at 10 uM relative to control; type: functional, cell-based
A2780 = assay: Antiproliferative activity against human A2780 cells; type: functional, cell-based
MDCK-II = assay: Antimigratory activity against MDCK2 cells assessed as inhibition of HGF-induced cell scattering at 1 uM pretreated for 18 hrs followed by HGF addition measured after 20 to 24 hrs by crystal violet staining-based assay relative to control; type: functional; conditions: Canis lupus familiaris

Cc1ccc(C(=O)Nc2ccc(-c3cccc(C4CCO4)c3)cn2)cn1 (stereo unspecified)
pIC50 [1]: 6.53
inhibition (Bos taurus): Dose-dependent effect

O=C(Nc1ccc(-c2ccccc2)cn1)c1cnccn1
pEC50 (MCF7): 6.50
pEC50 (A2780): 6.99

CNc1ncc(C(=O)Nc2ccc(-c3ccccc3)cn2)cn1
pEC50 (MCF7): 6.83
pEC50 (A2780): 7.31

O=C(Nc1ccc(-c2ccccc2)cc1)c1cncnc1
pEC50 (MCF7): < 5.00
pEC50 (A2780): < 5.00

CCOc1ccc(C(=O)Nc2cccc(C)n2)cc1[N+](=O)[O-]
inhibition at 1 µM (MDCK-II): 31.7%

O=C(Nc1ccc2ccccc2n1)c1cnc2cccnc2c1
inhibition at 1 µM (MDCK-II): -69%

O=C(Nc1ccccn1)c1cccc([N+](=O)[O-])c1
inhibition at 1 µM (MDCK-II): 45.3%

Cc1nc(NC(=O)c2cncc([N+](=O)[O-])c2)cnc1Br
inhibition at 1 µM (MDCK-II): -26%

O=C(Nc1ccc(-c2ccccc2)cn1)c1ncccn1
pEC50 (MCF7): < 5.00
pEC50 (A2780): < 5.00

O=C(Nc1ncc[nH]1)c1cccc([N+](=O)[O-])c1
inhibition at 1 µM (MDCK-II): -77%

O=C(Cc1cncnc1)Nc1ccc(-c2ccccc2)cn1
pEC50 (MCF7): < 5.00
pEC50 (A2780): < 5.00

O=C(Nc1ccc(-c2ccccn2)cn1)c1cncnc1
pEC50 (MCF7): 6.19
pEC50 (A2780): 6.21

O=C(Nc1ncc[nH]1)c1cccc(C(F)(F)F)c1
inhibition at 1 µM (MDCK-II): -72%

O=C(Nc1ccc(-c2cccc(C3CC3)c2)cn1)c1cncnc1
pIC50 [1]: 5.99
inhibition (Bos taurus): Dose-dependent effect

O=C(Nc1ccc(-c2ccccc2)cn1)c1nccs1
inhibition at 1 µM (MDCK-II): -13%

O=C(Nc1ccc(-c2ccc(Cl)cc2)cn1)c1cncnc1
pEC50 (MCF7): < 5.00
pEC50 (A2780): < 5.00

Cc1nc(NC(=O)c2cncnc2)cnc1Br
inhibition at 1 µM (MDCK-II): -42%

O=C(Nc1ccc(-c2ccccc2)cn1)c1cnc(-c2ccco2)nc1
pEC50 (MCF7): < 5.00
pEC50 (A2780): 5.82

Cc1ncncc1C(=O)Nc1ccc(-c2ccccc2)cn1
pEC50 (MCF7): < 5.00
pEC50 (A2780): < 5.00

Cc1nc(NC(=O)c2cccc(C(F)(F)F)c2)ccc1I
inhibition at 1 µM (MDCK-II): 72%

Cc1nc(NC(=O)c2cncc([N+](=O)[O-])c2)ccc1I
inhibition at 1 µM (MDCK-II): 21%

Cc1nc(NC(=O)c2cccc([N+](=O)[O-])c2)ccc1Cl
inhibition at 1 µM (MDCK-II): -5%

Cc1nc(NC(=O)c2cncc([N+](=O)[O-])c2)ccc1Cl
inhibition at 1 µM (MDCK-II): -20%

Cc1nc(NC(=O)c2cccc(C(F)(F)F)c2)ccc1Cl
inhibition at 1 µM (MDCK-II): -13%

Cc1nc(NC(=O)c2cccc([N+](=O)[O-])c2)cnc1Br
inhibition at 1 µM (MDCK-II): -33%

Cc1nc(NC(=O)c2nccs2)cnc1Br
inhibition at 1 µM (MDCK-II): -36%

O=C(Nc1ccc(-c2cccnc2)cn1)c1cncnc1
pEC50 (MCF7): 5.16
pEC50 (A2780): 5.23

O=C(Nc1ccc(-c2ccccc2)cn1)c1cncnc1-c1ccccc1
pEC50 (MCF7): < 5.00
pEC50 (A2780): < 5.00

O=C(Nc1ccc(-c2ccccc2)cn1)c1cccc(C(F)(F)F)c1
inhibition at 1 µM (MDCK-II): -2%

O=C(Nc1ncc(-c2ccccc2)cn1)c1cncnc1
pEC50 (MCF7): 6.57
pEC50 (A2780): 7.17

Cc1nc(NC(=O)c2nccs2)ccc1Cl
inhibition at 1 µM (MDCK-II): -28%

O=C(Nc1cscn1)c1cncnc1
inhibition at 1 µM (MDCK-II): -103%

Cc1nc(NC(=O)c2cncnc2)ccc1Cl
inhibition at 1 µM (MDCK-II): -18%

Cc1cc(NC(=O)c2ccc(C)c([N+](=O)[O-])c2)c(C)cc1I
inhibition at 1 µM (MDCK-II): 46.9%

Cc1nc(NC(=O)c2cnc3cccnc3c2)ccc1Cl
inhibition at 1 µM (MDCK-II): 12%

O=C(Nc1ccc(-c2ccoc2)cn1)c1cncnc1
pEC50 (MCF7): 6.69
pEC50 (A2780): 6.57

O=C(Nc1ccc(-c2ccco2)cn1)c1cncnc1
pEC50 (MCF7): 6.22
pEC50 (A2780): 6.71

Cc1nc(NC(=O)c2cccc([N+](=O)[O-])c2)ccc1Br
inhibition at 1 µM (MDCK-II): 88.6%

Cc1ncc(C(=O)Nc2ccc(-c3cccc(C4CC4)c3)cn2)cn1
pIC50 [1]: 6.05
inhibition (Bos taurus): Dose-dependent effect

Cc1ncc(C(=O)Nc2ccc(-c3ccccc3)cn2)cn1
pEC50 (MCF7): 6.96
pEC50 (A2780): 7.54

O=C(Nc1ccc(-c2ccccc2)cn1)c1nccnc1-c1ccccc1
pEC50 (MCF7): < 5.00
pEC50 (A2780): < 5.00

Cc1cc(C)nc(NC(=O)c2cccc([N+](=O)[O-])c2)c1
inhibition at 1 µM (MDCK-II): 52.5%

O=C(Nc1ccc2ccccc2n1)c1cccc(C(F)(F)F)c1
inhibition at 1 µM (MDCK-II): -59%

O=C(Nc1ccc(-c2ccccc2)cn1)c1cnc2cccnc2c1
inhibition at 1 µM (MDCK-II): 181%

O=C(Nc1ccc2ccccc2n1)c1nccs1
inhibition at 1 µM (MDCK-II): -51%

Cc1nc(NC(=O)c2ccc(N3CCCCC3)c([N+](=O)[O-])c2)ccc1I
inhibition at 1 µM (MDCK-II): 29.4%

Cc1nc(NC(=O)c2cnco2)ccc1Cl
inhibition at 1 µM (MDCK-II): -35%

O=C(Nc1ccc(C2CC2)cn1)c1cncnc1
pEC50 (MCF7): 6.11
pEC50 (A2780): 6.33

O=C(Nc1ccc(-c2ccncc2)cn1)c1cncnc1
pEC50 (MCF7): < 5.00
pEC50 (A2780): 5.33

O=C(Nc1ccc2ccccc2n1)c1cncc([N+](=O)[O-])c1
inhibition at 1 µM (MDCK-II): -63%

O=S(=O)(Nc1ccc(-c2ccccc2)cn1)c1cccnc1
pEC50 (MCF7): < 5.00
pEC50 (A2780): < 5.00

Cc1nc(NC(=O)c2cnc3cccnc3c2)cnc1Br
inhibition at 1 µM (MDCK-II): -25%

CSc1ncncc1C(=O)Nc1ccc(-c2ccccc2)cn1
pEC50 (MCF7): < 5.00
pEC50 (A2780): < 5.00

O=C(Nc1cnc(-c2ccccc2)cn1)c1cncnc1
pEC50 (MCF7): 5.08
pEC50 (A2780): < 5.00

O=C(Nc1ncc[nH]1)c1cnco1
inhibition at 1 µM (MDCK-II): -50%

O=C(Nc1ncc[nH]1)c1nccs1
inhibition at 1 µM (MDCK-II): -67%

O=C(Nc1ccc(-c2ccccc2)cn1)c1cccc([N+](=O)[O-])c1
inhibition at 1 µM (MDCK-II): 29%

Cc1nc(NC(=O)c2cc([N+](=O)[O-])ccc2N2CCOCC2)ccc1I
inhibition at 1 µM (MDCK-II): 31.7%

O=C(Nc1ccc2ccccc2n1)c1cccc([N+](=O)[O-])c1
inhibition at 1 µM (MDCK-II): -59%

O=C(Nc1cscn1)c1cnco1
inhibition at 1 µM (MDCK-II): -54%

Cc1cc(NC(=O)c2cccc([N+](=O)[O-])c2)ccc1I
inhibition at 1 µM (MDCK-II): 53.1%

Cc1nc(NC(=O)c2cnco2)ccc1I
inhibition at 1 µM (MDCK-II): 32%

O=C(Nc1ncc(Br)cc1Br)c1cccc([N+](=O)[O-])c1
inhibition at 1 µM (MDCK-II): 42.4%

CC[C@]1(O)C[C@H]2CN(CCc3c([nH]c4ccccc34)[C@@](C(=O)OC)(c3cc4c(cc3OC)N(C=O)[C@H]3[C@@](O)(C(=O)OC)[C@H](OC(C)=O)[C@]5(CC)C=CCN6CC[C@]43[C@@H]65)C2)C1 [VINCRISTINE]
pIC50 [1]: 6.16 to 6.40

O=C(Nc1ccc(-c2ccccc2)cn1)c1cccnc1
pEC50 (MCF7): 6.66
pEC50 (A2780): 7.11

O=C(Nc1ccc(-c2ccccc2Cl)cn1)c1cncnc1
pEC50 (MCF7): 6.90
pEC50 (A2780): 6.59

Cc1ncc(C(=O)Nc2ccc(-c3cccc(OC4CC4)c3)cn2)cn1
pIC50 [1]: 6.09
inhibition (Bos taurus): Dose-dependent effect

Cc1ncc(C(=O)Nc2ccc(-c3cccc(NC4CC4)c3)cn2)cn1
pIC50 [1]: 6.50
inhibition (Bos taurus): Dose-dependent effect

c1ccc(-c2ccc(NCc3cncnc3)nc2)cc1
pEC50 (MCF7): < 5.00
pEC50 (A2780): < 5.00

CN(C(=O)c1cnccn1)c1ccc(-c2ccccc2)cn1
pEC50 (MCF7): < 5.00
pEC50 (A2780): < 5.00

CCOc1ccc(C(=O)Nc2ccc(I)cn2)cc1[N+](=O)[O-]
inhibition at 1 µM (MDCK-II): 69.9%

Cc1nc(NC(=O)c2nccs2)ccc1I
inhibition at 1 µM (MDCK-II): -20%

O=C(Nc1ccc(-c2ccccc2)cn1)c1ccncn1
pEC50 (MCF7): < 5.00
pEC50 (A2780): < 5.00

Cc1nc(NC(=O)c2cnc3cccnc3c2)ccc1I
inhibition at 1 µM (MDCK-II): 33%

Cc1cc(NC(=O)c2cccc([N+](=O)[O-])c2)ccc1O
inhibition at 1 µM (MDCK-II): 34.6%

O=C(Nc1ccc(-c2ccsc2)cn1)c1cncnc1
pEC50 (MCF7): 7.18
pEC50 (A2780): 7.22

Cc1nc(NC(=O)c2ccc(N3CCCC3)c([N+](=O)[O-])c2)ccc1I
inhibition at 1 µM (MDCK-II): 44%

O=C(COc1cncnc1)Nc1ccc(-c2ccccc2)cn1
pEC50 (MCF7): < 5.00
pEC50 (A2780): < 5.00

O=C(Nc1ccc(-c2ccccc2)cn1)c1cnco1
inhibition at 1 µM (MDCK-II): -10%

O=C(Nc1cscn1)c1cccc(C(F)(F)F)c1
inhibition at 1 µM (MDCK-II): -73%

Cc1nc(NC(=O)c2cccc(C(F)(F)F)c2)cnc1Br
inhibition at 1 µM (MDCK-II): -6%

O=C(Nc1ccc(-c2ccccc2)cn1)c1cncc([N+](=O)[O-])c1
inhibition at 1 µM (MDCK-II): -32%

O=C(Nc1ccc2ccccc2n1)c1cncnc1
inhibition at 1 µM (MDCK-II): -55%

Cc1cc(NC(=O)c2cccc([N+](=O)[O-])c2C)c(C)cc1I
inhibition at 1 µM (MDCK-II): 36.1%

O=C(Nc1cncnc1)c1ccc(-c2ccccc2)cn1
pEC50 (MCF7): < 5.00
pEC50 (A2780): < 5.00

O=C(Nc1ccc2ccccc2n1)c1cnco1
inhibition at 1 µM (MDCK-II): -58%

Cc1nc(NC(=O)c2cnco2)cnc1Br
inhibition at 1 µM (MDCK-II): -21%
